Patent publication US20240059669A1, “COCRYSTAL OF A CDK INHIBITOR” (AURIGENE ONCOLOGY LIMITED, priority 2020, published 2024)
Where a name gives a salt, the structure may show the parent alone.

Tests used:
Assay type in all cases: physicochemical
[1] = Equilibrium solubility in various media (shaker water bath, HPLC analysis); conditions: for Solubility (mg/ml) ± SD: 24 hrs
Protocol: Equilibrium solubility of compound of formula (I) free base and compound of formula (I) fumarate were measured in various medium. Excess quantities of compound of formula (I) and compound of formula (I) fumarate were added to glass vials containing different medium. These vials were kept for shaking in shaker water bath at appropriate temperature (25° C. for water and 37° C. for buffers) at 200 rpm. The obtained preparations were filtered and analysed by means of HPLC.

[2] = Dynamic vapor sorption (DVS) moisture uptake study; conditions: at 90% RH, 25° C.
Protocol: The moisture uptake study of compound of present invention was performed with a DVS instrument (Q5000SA, TA instruments, New Castle, Delaware, USA) at 25° C. to evaluate the physical stability of compound of present invention against moisture or tendency to adsorb moisture. The instrument consisted of a microbalance housed inside a temperature-controlled chamber. The humidity was controlled via switching valves, which control the flow of a dry gas (nitrogen) through a humidification stage. Instrument was programmed for moisture sorption from 40 to 90% RH in 10% RH steps at 25±0.1° C. using an equilibrium condition. The equilibrium condition was set to <0.01% total mass change within 10 min and with a maximum dwell time of 60 min followed by desorption from 90% RH to 10% RH steps. The equilibrium condition for desorption was set to <0.01% total mass change within 10 min and with a maximum dwell time of 60 min.

[3] = Variable temperature X-ray diffraction (VT-XRD) physical stability; conditions: 25° C., 40° C. and 60° C.; isothermal hold of 60 min
Excerpt: An Anton Paar temperature-humidity chamber (THC) was used to collect in situ XRPD patterns as a function of humidity. The humidity was generated with an RH-200 manufactured by VTI Inc. and carried by a flow of nitrogen gas. The humidity and temperature was monitored by a HygroClip sensor manufactured by Rotronic located next to the specimen inside the THC. XRPD patterns were collected with a PANalytical X'Pert PRO MPD diffractometer in symmetric Bragg-Brentano reflection geometry. Isothermal hold of 60 min given at specified temperature. Heating rate was kept at 10° C./min. Approximately 200 mg sample used for VT-XRD analysis. Cu Kα radiation was produced using a long, fine-focus source operated at 45 kV and 40 mA. The incident beam was conditioned using a nickel filter, a 0.02-rad Soller slit, a 11.6-mm fixed incident beam mask, a fixed 0.76-mm ½° antiscatter slit, and a fixed 0.38-mm ¼° divergence slit. The diffracted beam was conditioned using a 5-mm antiscatter slit, a 0.04-rad Soller slit. The diffraction patterns were collected using a scanning position-sensitive detector (X'Celerator) located 240 mm from the sample. Data were collected and analyzed using Data Collector software v. 5.5.
VT-XRD analysis confirmed that compound of formula (I)-fumaric acid cocrystal remained stable and no solid form transformation/phase change occurred even at higher temperature conditions. […]

[4] = Variable humidity X-ray diffraction (VH-XRD) physical stability; conditions: 40% RH to 85% RH sorption then desorption to 40% RH, 1 hr at each RH level
Protocol: An Anton Paar TTK 450 stage was used to collect in situ XRPD patterns as a function of temperature. The sample was heated with a resistance heater located directly under the sample holder, and the temperature was monitored with a platinum-100 resistance sensor located in the specimen holder. The heater was powered and controlled by an Anton Paar TCU 100 interfaced with Data Collector. Approximately 200 mg sample used for VH-XRD analysis.
The compound of present invention was exposed to various humidity conditions. The sample, i.e., compound of formula (I) fumarate, was exposed from 40% RH to 85% RH followed by desorption cycle from 85% to 40% RH. The samples were equilibrated for 1 hr at each RH level (both sorption and desorption). […] See, FIG. 6B.

[5] = 6-month storage stability of solid form (XRPD, particle morphology); conditions: 6 months
[6] = pH 4.5 Acetate buffer USP, 37° C.
[7] = pH 5.8 Phosphate buffer USP, 37° C.
[8] = pH 6.8 Phosphate buffer USP, 37° C.

SMILES | Solubility (mg/ml) ± SD ([1]; Purified water, 25° C.) [mg/mL] | Solubility (mg/ml) ± SD ([1]; pH 2.8 Acid Phthalate buffer USP, 37° C.) [mg/mL] | Solubility (mg/ml) ± SD [1, 6] [mg/mL] | Solubility (mg/ml) ± SD [1, 7] [mg/mL] | Solubility (mg/ml) ± SD [1, 8] [mg/mL] | weight/moisture gained (DVS) [2] | physical stability at different temperature conditions (VT-XRD) [3] | physical stability at different relative humidity conditions (VH-XRD) [4] | solid form and particle morphology after storage ([5]; 25° C./60% RH) | solid form and particle morphology after storage ([5]; 40° C./75% RH) | solubility at 24 h ([1]; pH 2.8 acid phthalate buffer USP, 37 °C, pH 2.8, aqueous buffer, thermodynamic from solid, pH 2.8 Acid Phthalate buffer USP, 37° C., read-out: Solubility (mg/ml) ± SD) [mg/mL]
CC(C)[C@H](C(=O)Nc1cc(C2CC2)[nH]n1)c1cccc(-c2ccc(NC(=O)/C=C/CN3CCOCC3)nc2)c1 [Formula (I) fumarate] | 0.280 ± 0.004 | 0.114 ± 0.017 | 0.171 ± 0.001 | 0.014 ± 0.004 | 0.014 ± 0.009 | About 0.646 % w/w | physically stable | remained physically stable | remained unchanged | remained unchanged | 
CC(C)[C@H](C(=O)Nc1cc(C2CC2)[nH]n1)c1cccc(-c2ccc(NC(=O)/C=C/CN3CCOCC3)nc2)c1 [Formula (I) free base, (S, E)-N-(5-(3-(1-((5-cyclopropyl-1H-pyrazol-3-yl)amino)-3-methyl-1-oxobutan-2-yl)phenyl)pyridin-2-yl)-4-morpholinobut-2-enamide] | 0.0013 ± 0.0001 |  | 0.07 ± 0.004 | 0.002 ± 0.0001 | 0.0005 ± 0.0002 |  |  |  |  |  | 0.065 ± 0.004
